In the METLIN SMRT retention time set (Domingo-Almenara et al. 2019):

Experiment: gradient 5% acetonitrile 3 min, to 50% in 2 min, to 85% in 15 min, held 3 min, 100 µL/min
Conditions: column: Zorbax Extend-C18 2.1 x 50 mm; eluents: water / acetonitrile, 0.1% formic acid
Procedure, shortened: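 Pure standards were analyzed in mixtures of ~100 molecules using HPLC coupled to a quadrupole time-of-flight mass spectrometer, in both positive and negative ionization mode. Separation used a Zorbax Extend-C18 column (2.1 × 50 mm, 1.8 μm) at 100 μL/min, with water and acetonitrile each containing 0.1% formic acid. Dead and dwell volumes were 40 μL and 900 μL, and data were collected over 3 months. Retention time was read from computationally picked adduct peaks, each inspected manually.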

Structure (SMILES) | RP-LC retention time
CCN1c2ccccc2C(=O)NC12CCN(C(=O)c1cc(OC)c(OC)c(OC)c1)CC2 | 714 s
CC1CCc2c(N3CCC(O)CC3)c(F)cc3c(=O)c(C(=O)O)cn1c23 (stereo not given) | 709 s
O=C(Cn1ncn2nc(-c3ccccc3)cc2c1=O)N1CCN(c2ccccn2)CC1 | 620 s
CCCS(=O)(=O)c1nc2ccc(NS(=O)(=O)c3ccc(F)cc3Cl)cc2s1 | 973 s
Cc1oc2c(c1C(=O)Nc1ccc(F)cc1Br)C1=NC(C)(C)CN1C=N2 | 671 s
COc1ccc(/C=C/c2nc3sc4c(c3c(=O)o2)CCCC4)cc1OC | 1250 s
CNC(=O)N1CCCC(c2cccc(C(=O)NCc3cccc(C(F)(F)F)c3)c2)C1 (stereo not given) | 850 s
CC(C)NC(=O)N1CCC(c2nc3cccnc3n2C)C1 (stereo not given) | 572 s
O=C(NC1CCCCC1)c1ccc(-c2csc(C3CC3)n2)cc1 | 1050 s
CC(C)CC(=O)Nc1ccc(-n2cnc(C(=O)NC3CC3)c2)nc1 | 668 s
Cc1ccc2ncn(C3CCN(C(=O)Nc4ccc(F)cc4F)CC3)c(=O)c2c1 | 770 s
Cc1nn(C)c(C)c1CNC(=O)C1CCN(c2cnn(Cc3ccccc3)c(=O)c2)CC1 | 654 s
CN(C)S(=O)(=O)N1CC[C@@H]2C(=O)NCCCCCCN(Cc3ccncc3)[C@@H]2C1 | 603 s
Cn1cc2c3c(cccc31)CN(C(=O)c1ccccc1Br)CC2 | 968 s
Cc1cc(=O)n(CC(=O)Nc2ccc(F)cc2Cl)c(N2CCCCC2)n1 | 718 s
Cc1ccc(S(=O)(=O)N2CCC(C(=O)NCc3cscn3)CC2)c(C)c1 | 752 s
CCN1CCC(CCNC(=O)c2cc3c(s2)N(CC)CCCC3)CC1 | 685 s
CCNc1cc(N2CCC(CCC(=O)NCc3ccc(F)cc3F)CC2)ncn1 | 669 s
CCN1CCCn2cc(S(=O)(=O)Nc3ccc(C)cc3C)cc2C1=O | 763 s
c1ccc(C2(c3ccccc3)CC2C2=NCCN2)cc1 (stereo not given) | 732 s

Structure (SMILES) | RP-LC retention time
Cc1cccnc1NC(=O)c1c[nH]c2c(C(F)(F)F)cccc2c1=O | 573 s
O=C(NCc1cccs1)C1CCCN(c2nc3ccccc3n(Cc3ccccc3)c2=O)C1 (stereo not given) | 1100 s
Cc1noc([C@@H]2CC(F)(F)CN2C(=O)c2ocnc2C)n1 | 685 s
CCn1ccnc1N1CCN(CC(=O)Nc2cc(Cl)ccc2OC)CC1 | 552 s
CC1CCN(c2ccc(-c3noc(CN4CCN(c5ccccn5)CC4)n3)cn2)CC1 | 570 s
CC(C)CNC(=O)Cc1cn(C)c2ncccc12 | 595 s
COC(=O)c1c(C)[nH]c(C(=O)N2CCC(CC(=O)NCc3ccccc3)CC2)c1C | 716 s
CCCCn1nc2c(S(=O)(=O)N3CCN(c4ccc(F)cc4)CC3)cccn2c1=O | 951 s
Cc1nn(C(C)C(=O)NCCCN2CCN(C)CC2)c(=O)c2c1sc1ccccc12 (stereo not given) | 592 s
CCCN1C(=O)CN(S(C)(=O)=O)CC1(C)C(=O)NCc1ccc(C)cc1 (stereo not given) | 758 s
CCCN1CCN(C2CCN(C(=O)C(CC)CC)CC2)C1=O | 727 s
Cc1noc([C@@H]2CC(F)(F)CN2C(=O)c2cnc[nH]2)n1 | 582 s
O=C(NCc1cccs1)C1CCCN(c2nnc3ccc(Cl)cn23)C1 (stereo not given) | 650 s
CC(C(=O)Nc1ccc(Cl)cc1F)C1CCN(C(=O)Nc2ccc(Cl)cc2)CC1 (stereo not given) | 1020 s
CCCn1cc(C2=CCN(S(=O)(=O)c3ccc(F)c(Cl)c3)CC2)c2cccnc21 | 1190 s
CCCCCn1c(=O)c2ccccc2n(Cc2nc(-c3ccccc3OCC)no2)c1=O | 1250 s
NCC(=O)Nc1ccc(Cl)cc1C(=O)c1ccc[nH]1 | 665 s
Cn1nc(C(=O)NCc2ccc3c(c2)OCO3)c2c1CCN(C(=O)C1CC1)C2 | 716 s
CN(C)C(=O)c1ccc2c(c1)nc(CN1CCN(C(=O)c3ccc(C#N)cc3)CC1)n2C | 597 s
CC(=O)c1sc(NC(=O)c2c[nH]c3ccccc3c2=O)nc1C | 615 s

Structure (SMILES) | RP-LC retention time
Cc1nn(-c2ccc(N3CCOCC3)nn2)c(C)c1CCC(=O)NCCC(C)C | 672 s
CCc1onc(C)c1C1CCCN1C(=O)c1c(OC)cccc1OC (stereo not given) | 898 s
CCCCOc1ccc(C(=O)N2CCN(c3cc(C)nc(N4CCCC4)n3)CC2)cc1 | 788 s
O=C(NC1CCCCC1)c1ccc2c(c1)N(C(=O)c1ccc(F)cc1)CC2 | 944 s
CC(C)NC(=O)c1ccc2c(c1)CCCN2S(C)(=O)=O | 717 s
CSc1ccccc1CN1CCC(CNC(=O)c2ccccc2Br)CC1 | 572 s
Cc1sc2nc(SCC(=O)Nc3ccc(S(N)(=O)=O)cc3)nc(N)c2c1C | 682 s
CCNC(=O)N1CCCC(c2cccc(C(=O)NCc3cccc(C(F)(F)F)c3)c2)C1 (stereo not given) | 900 s
COCCN1C(=O)c2ccccc2C(C(=O)NCCCN2CC(C)CC(C)C2)C1c1cccs1 (stereo not given) | 670 s
Cc1ccc(C(=O)N2CCC(CCOCC3CC3)CC2)cn1 | 660 s
Cc1ccc2nc(C)cc(C(=O)NC(C)C)c2c1 | 595 s
CCN(CC)CCOC(=O)C(c1ccccc1)C1CCCCC1 (stereo not given) | 882 s
Cc1cc2n(n1)CCCN2C(=O)CCC(=O)N1CCN(c2ccc(Cl)cc2)CC1 | 758 s
O=C1[C@H]2CN(Cc3cccc(Cl)c3F)C[C@H]2C(=O)N1CCc1ccccc1 | 992 s
O=C(NCc1ccccn1)C1(CCO)CCN(c2ncccn2)C1 (stereo not given) | 522 s
O=C(CN1CCN(Cc2ccc(F)cc2)C1=O)NCCc1cccs1 | 776 s
Cc1nnc(C2CCCCCN2C(=O)Cc2c(C)noc2C)o1 (stereo not given) | 658 s
CCc1nc2c(c(=O)n1CC(=O)NC1CCCC1)CN(Cc1ccccc1)CC2 | 621 s
COCCN1C(=O)CCC2(C(=O)NCCc3ccncc3)CCCC=C12 (stereo not given) | 542 s
Cc1noc(C)c1CC(=O)NC1CCN(c2ccc(=O)n(CCOc3ccccc3)n2)C1 (stereo not given) | 701 s

Continued, values first:

RP-LC retention time | Structure (SMILES)
832 s | COC(=O)c1cnc2nc(-c3ccccc3)nn2c1C
674 s | COc1ccc(-c2nc3ncccn3c2Nc2ccc3c(c2)OCCO3)cc1
796 s | CC1=NN(c2nc3ccccc3[nH]2)C(=O)C1Cc1ccccc1 (stereo not given)
1120 s | Cc1ccccc1Nc1c(-c2cccc(Cl)c2)nc2ccc(Br)cn12
1390 s | Cc1ccc(-c2noc(CN3C(=O)COc4ccc(C(C)(C)C)cc43)n2)cc1C
678 s | COc1ccc(-c2cc(=O)n(CCNC(=O)c3c(F)cccc3F)cn2)cc1
1120 s | CCOC(=O)c1noc2nc(C)nc(Nc3cccc(F)c3)c12
809 s | O=c1c2scc(-c3cccc(F)c3)c2ncn1Cc1cc(=O)n2ccccc2n1
1190 s | COc1cccc(N2CCN(S(=O)(=O)c3cc(-c4csc(C)n4)ccc3C)CC2)c1
987 s | CCn1c(=O)c(N2CCN(C(=O)Nc3ccccc3Cl)CC2)nc2ccccc21
1030 s | Cn1nnc2ccc(-c3noc(-c4ccccc4Br)n3)cc21
826 s | CCc1noc(NC(C)=O)c1-c1ccc(C)c(S(=O)(=O)Nc2cccc(C)c2)c1
997 s | COc1cccc(Cn2nc3c(S(=O)(=O)N4CCN(c5ccc(F)cc5)CC4)cccn3c2=O)c1
788 s | O=C(CC1COc2ccccc2NC1=O)Nc1ccc(F)c(Cl)c1 (stereo not given)
785 s | O=C(NCc1cc(-c2ccc3c(c2)OCO3)on1)c1c(F)cccc1Cl
1080 s | COC(=O)c1ccc(NC(=O)N2CCN(c3nc4ccccc4nc3C(F)(F)F)CC2)cc1
976 s | COc1ccc(-c2ncc3c(n2)CCN(S(=O)(=O)Cc2ccccc2)C3)cc1
638 s | COc1ccc(-n2nc(C(=O)N3CCCCC3c3cccnc3)c(=O)n(C)c2=O)cc1 (stereo not given)
1150 s | Cc1ccc(-c2nnc(-c3ccc(Cl)c(S(=O)(=O)N4CCCC4)c3)o2)cc1
1130 s | CCc1ccc(N2C(=O)C3N=NN(Cc4nc(-c5cccc(C(F)(F)F)c5)no4)C3C2=O)cc1 (stereo not given)
1020 s | Cc1ccc(Cl)cc1-n1ccnc(NC(=O)Nc2ccccc2)c1=O
1160 s | CC1CCN(S(=O)(=O)c2ccc(-c3nnc(C(=O)NCCc4ccc(Cl)cc4)o3)cc2)CC1
908 s | Cc1ccccc1Nc1c(-c2ccc(Cl)cc2)nc2ncccn12
1050 s | CCOc1ccc(-n2c(-c3ccc(Cl)cc3)cn3c4c(=O)n(C)c(=O)n(C)c4nc23)cc1
767 s | CCN1C(=O)c2cccnc2Sc2cc(CNC(=O)Cc3ccccc3F)ccc21
735 s | CC(NC(=O)C1CCN(c2ncnc3c2oc2ccccc23)CC1)c1ccccc1 (stereo not given)
780 s | Cc1nc2cc(-c3noc(CNC(=O)Cc4ccccc4)n3)ccc2o1
793 s | O=C(COc1ccc2c3c(c(=O)oc2c1)CCC3)N[C@H](Cc1c[nH]c2ccccc12)C(=O)O
854 s | CCCC(=O)Nc1ccc(OCc2cc(C(=O)NC3CCCC3)no2)cc1
638 s | NS(=O)(=O)c1ccc(NC(=O)Cn2cnc(-c3ccccc3)cc2=O)cc1
